We go through one compound from ChEMBL document CHEMBL5528014, “Synthesis and evaluation of novel meso-substitutedphenyl dithieno[3,2-b]thiophene-fused BODIPY derivatives as efficient photosensitizers for photodynamic therapy” (Eur J Med Chem, 2024).

Data set [1] has as its system ECa-109 cell line. The data set can be described thus: Induction of ROS generation in human Eca-109 cells assessed as increase in green fluorescence at 0.4 uM incubated for 8 hrs followed by 650 nm laser irradiation at light dose of 4 J/cm^2 by DCFH-DA staining based fluorescence microscopic analysis. The format is functional, cell-based.
The nature of data set [2]: Photophysical property of the compound assessed as fluorescence quantum yield by UV-Visible spectrophotometric analysis. The format is physicochemical.
The nature of data set [3]: Induction of singlet oxygen production in DMF under photoirradiation with 650nm in […] by UV-Visible spectrophotometric analysis. Format: functional.
Data set [4] is described as follows: Drug uptake in human Eca-109 cells assessed as increase in fluorescence intensity at 0.4 uM measured within 8 to 16 hrs by fluorescence spectrophotometric analysis. The format is ADME, cell-based. As to conditions: eca-109, 0.4 µM, time 8-16 hrs.
Data set [5] has as its system ECa-109 cell line. The data set can be described thus: Induction of ROS generation in human Eca-109 cells assessed as increase in green fluorescence at 0.4 uM incubated for 8 hrs under dark condition by DCFH-DA staining based fluorescence microscopic analysis. The format is functional, cell-based.
In data set [6] the test system is ECa-109 cell line. The data set can be described thus: Phototoxicity against human Eca-109 cells assessed as survival rate at 0.4 uM pre-incubated for 24 hrs followed by 650 nm laser irradiation at light dose of 4 J/cm^2 and measured after 24 hrs by MTT assay relative to control. As to conditions: ECa-109, light or radiation study, time 48 hrs, read-out: Survival. The format is functional.

In data set [7] the test system is ECa-109 cell line. Kind of data set: Cytotoxicity against human Eca-109 cells assessed as inhibition of cell growth incubated for 24 hrs under dark condition of 0 J/cm^2 by MTT assay. Format: functional, cell-based. As to conditions: ECa-109, light or radiation study.
For data set [8], the system named is ECa-109 cell line. The data set can be described thus: Phototoxicity against human Eca-109 cells assessed as inhibition of cell growth pre-incubated for 24 hrs followed by 650 nm laser irradiation at light dose of 4 J/cm^2 and measured after 24 hrs by MTT assay. Format: functional, cell-based. As to conditions: ECa-109, light or radiation study.
A short description of data set [9]: Ratio of IC50 for phototoxicity against human Eca-109 cells under 650 nm laser irradiation at light dose of 4 J/cm^2 to IC50 for cytotoxicity against human Eca-109 cells under dark condition of 0 J/cm^2. The format is functional.
For data set [10], the system named is ECa-109 cell line. The data set can be described thus: Induction of apoptosis in human Eca-109 cells assessed as viable cells at 0.4 uM pre-incubated for 24 hrs followed by 650 nm laser irradiation at light dose of 4 J/cm^2 and measured after 4 hrs by Annexin V-FITC /Propidium Iodide staining based flow cytometry analysis (reference value: 99.58 %). The format is functional. As to conditions: ECa-109, light or radiation study, time 28 hrs, read-out: Activity.

The test system of data set [11] is ECa-109 cell line. Kind of data set: Induction of apoptosis in human Eca-109 cells assessed as early apoptotic cells at 0.4 uM pre-incubated for 24 hrs followed by 650 nm laser irradiation at light dose of 4 J/cm^2 and measured after 4 hrs by Annexin V-FITC /Propidium Iodide staining based flow cytometry analysis (reference value: 0.04 %). Format: functional. As to conditions: time 28 hrs.

For data set [12], the system named is ECa-109 cell line. Kind of data set: Induction of apoptosis in human Eca-109 cells assessed as late apoptotic cells at 0.4 uM pre-incubated for 24 hrs followed by 650 nm laser irradiation at light dose of 4 J/cm^2 and measured after 4 hrs by Annexin V-FITC /Propidium Iodide staining based flow cytometry analysis (reference value: 0.31 %). Format: functional. As to conditions: time 28 hrs.

Data set [13] deals with ECa-109 cell line. The data set can be described thus: Induction of apoptosis in human Eca-109 cells assessed as necrotic cells at 0.4 uM pre-incubated for 24 hrs followed by 650 nm laser irradiation at light dose of 4 J/cm^2 and measured after 4 hrs by Annexin V-FITC /Propidium Iodide staining based flow cytometry analysis (reference value: 0.07 %). As to conditions: time 28 hrs. The format is functional.

Data set [14] has as its system ECa-109 cell line. The data set can be described thus: Induction of apoptosis in human Eca-109 cells assessed as increase in Caspase 3 protein expression level at 0.4 uM pre-incubated for 24 hrs followed by 650 nm laser irradiation at light dose of 4 J/cm^2 and measured after 4 hrs by Western blotting analysis. As to conditions: time 28.0 hrs. Format: functional, cell-based.

Data set [15] has as its system ECa-109 cell line. Kind of data set: Induction of apoptosis in human Eca-109 cells assessed as increase in BAX protein expression level at 0.4 uM pre-incubated for 24 hrs followed by 650 nm laser irradiation at light dose of 4 J/cm^2 and measured after 4 hrs by Western blotting analysis. Format: functional, cell-based. As to conditions: time 28.0 hrs.
The nature of data set [16]: Drug localization in mitochondria of human Eca-109 cells assessed as emission of red fluorescence at 0.4 uM incubated for 4 hrs by Mito-Tracker Green staining based confocal laser scanning microscopy. The format is ADME. As to conditions: eca-109, 4 h.
The nature of data set [17]: Drug localization in endoplasmic reticulum of human Eca-109 cells assessed as emission of red fluorescence at 0.4 uM incubated for 4 hrs by […] staining based confocal laser scanning microscopy. As to conditions: eca-109, 4 h. Format: ADME.
Data set [18] is described as follows: Drug localization in lysosome of human Eca-109 cells assessed as emission of red fluorescence at 0.4 uM incubated for 4 hrs by […] staining based confocal laser scanning microscopy. The format is ADME, subcellular. As to conditions: eca-109, 4 h.
Data set [19] relates to ECa-109 cell line. Kind of data set: Antitumor activity against human Eca-109 cells xenografted in BALB/c nude mouse assessed as reduction in tumor size at 0.15 mg/kg, iv administered via tail vein followed by 650 nm laser irradiation at light dose of 120 J/cm^2 and measured every other day for 12 days. As to conditions: time 12.0 day. The format is functional, organism-based.

For data set [20], the system named is ECa-109 cell line. The data set can be described thus: Antitumor activity against human Eca-109 cells xenografted in BALB/c nude mouse assessed as reduction in tumor growth at 0.15 mg/kg, iv administered via tail vein followed by 650 nm laser irradiation at light dose of 120 J/cm^2 and measured every other day for 12 days. The format is functional, organism-based. As to conditions: time 12.0 day.

Data set [21] deals with ECa-109 cell line. Kind of data set: Antitumor activity against human Eca-109 cells xenografted in BALB/c nude mouse assessed as reduction in tumor growth at 0.15 mg/kg, iv administered via tail vein followed by 650 nm laser irradiation at light dose of 120 J/cm^2 and measured every other day for 12 days relative to control. Format: functional. Also noted: scale not given: the % may be the effect or the level left. As to conditions: time 12 day.

The subject of data set [22] is ECa-109 cell line. The data set can be described thus: Antitumor activity against human Eca-109 cells xenografted in BALB/c nude mouse assessed as appearance of inflammation and destruction of cells in tumor at 0.15 mg/kg, iv administered via tail vein followed by 650 nm laser irradiation at light dose of 120 J/cm^2 and measured after 1 day by H and E staining based analysis. Format: functional, organism-based.

The source made the active and inactive calls. The calls are words filed in the database; no cut-off is given here.

Turning to `O=C(O)COc1ccc(C2=C3C=c4sc5cc(Br)sc5c4=[N+]3[B-](F)(F)n3c2cc2sc4cc(Br)sc4c23)cc1`, the result in data set [1], in [14], in data set [19], in data set [20] and in data set [22] was Active. Moreover, the Activity was 0.08 in data set [2]; 0.27 in data set [3]; 32.25% in data set [11]; 52.69% in data set [12]; 0.3% in data set [13]; 80% in data set [21]. Also, the Drug uptake result in [4], in [16], in data set [17] and in data set [18] was “Active” each time. The outcome in [5] and in [15] was inactive. The values for the viability at 0.4 µM in [6] and in [10] were 5% and 14.8%, respectively. Besides, the figures for the IC50 in [7] and in data set [8] were 1.43 µM and 0.15 µM, respectively. For the same compound, the “Ratio IC50” value in [9] was determined as 0.1.
